The nature of data set [1]: Coacervate assembly via pH shift: size and number by microscopy. In kind it is physicochemical. To be noted: peptide 0.5 mg/mL or higher.
The conditions of data set [2]: cited from earlier work.
A further data set deals with U2OS cells. Put plainly: Coacervate uptake and stability over 5 days in U2OS cells. The class given is cell-based, human. To be noted: particles pre-assembled at 0.5 mg/mL, diluted 1:10 to 1:3 in media; 4 h and 24 h.
A further data set concerns primary human monocytes. Put plainly: Coacervate uptake in primary human monocytes. The class given is cell-based. To be noted: particles pre-assembled at 0.5 mg/mL, diluted 1:10 to 1:3 in media; 4 h and 24 h.
The test system of data set [3] is B16-F10 murine melanoma cells. The data set is described as follows: Coacervate uptake in B16-F10 cells. The class given is cell-based, mouse. The note with it: particles pre-assembled at 0.5 mg/mL, diluted 1:10 to 1:3 in media; 4 h and 24 h.

Turning to GHGVYGHGVYGHGPYGHGPYGHGLYW [HBpep], the average particle diameter in data set [1] was greater than 2 µm. Moreover, the “solubility in acidic buffer” value in data set [2] (pH 4.5) was “largely soluble”. In data set [2] (pH 7.4, standard conditions), the “behaviour at physiological pH” value was “phase separate”. In addition, the uptake by cells entry (with U2OS cells; with primary human monocytes; in data set [3]) was “highly efficient uptake” in each case.

The record behind these values is PMC12966373 (Nature Communications, 2026).
